# Patent US20040248971A1, “Use of vitamin e succinate and antiandrogen combination” (priority 2001, published 2004)
# Entries after “also recorded” stand apart in the source; their conditions may differ.
# Tests used:
# LNCaP cells [1] = assay: MTT assay / cell counting, LNCaP cell growth; assay type: cell-based, human; conditions: for DHT-mediated LNCaP cell growth: 8% CS-FBS with 5 nM DHT
# Procedure: Cells were harvested at the time indicated. […] Cells were harvested at the time indicated. […] Cell growth was determined by the MTT assay. The control group was cultured in 0.1% (vol/vol) ethanol and was set at 100%.
# All the cell growth was determined by cell counting and MTT assay. Control group contained 0.1% (v/v) ethanol and was set at 100%.
# LNCaP cells were cultured in RPMI medium with 8% FBS, and treated with 10^−5M of the indicated reagent Cells were harvested at the time indicated in the figure. All the cell growth was determined by cell counting and MTT assay. Control group contained 0.1% (v/v) ethanol and was set at 100%.
# The human prostate cancer cell line LNCaP was obtained from the American Type Culture collection (Rockville, Md.). Fibroblast cell was primarily cultured from normal prostate tissue. LNCaP cells were propagated in 12-well, 60 mm or 100 mm culture dishes at the desired density in RPMI 1640 medium (Gibco, Rockville, Md.) supplemented with 8% fetal bovine serum (FBS) (Gibco, Rockville, Md.) at 37° C. and 5% CO2 until reaching 60%-80% confluence or were grown in phenol red-free RPMI medium 1640 with 8% fetal bovine serum (FBS). The fibroblast cells were maintained in DMEM (Gibco, Rockville, Md.) with 10% FBS. […] During the treatment, the medium was changed every 4 days and fresh compounds were added every 2 days.
# The MTT assay is a quantitative colorimetric assay for mammalian cell survival and proliferation (13, 16). The 5×10^4 LNCaP cells were seeded in 12-well plates. After 36-48 h, the medium was changed to phenol red free RPMI1640 with 8 % FBS or CS-FBS for another 2, 4, and 6 days, with different compound treatment with or without ligand. At the end of each time period treatment, 200 μl of MTT (5 mg/ml; Sigma) was added into the each well with 1 ml of medium for 3 h at 37° C. After incubation, 2 ml of 0.04 M HCl in isopropyl alcohol was added into each well. After 30-min shaking at room temperature and several pippettings, the absorbency was read at a test wavelength of 595 nm. The 2×10^5 fibroblast cells were seeded in each well of 6-well dishes. […] For cell counting, cells were trypsinized, neutralized by medium, and counted on hemocytometers. Fibroblast cells were seeded at 2×10^5 per well in 6-well plates, and cell growth assays were conducted by using the same MTT assay used for LNCaP cells.
# PSA = PSA expression in LNCaP cells (Western and Northern blotting); assay type: cell-based, human; conditions: for PSA expression at mRNA and protein levels: 5 nM DHT, 10 μM VES, Western and Northern blotting; for PSA expression: Western blotting (FIG. 9)
# Procedure: (§1) Cells without treatment were harvested on day 2 and used as a control. Western blotting was used to detect the expression of PSA protein. Actin served as an internal control. […] Cells were harvested on days 1, 2, and 3 for Northern blotting analysis. β-Actin served as an internal control. […] The transfections were performed at least three times and presented as an average±SD. […] LNCaP cells without any treatment harvested on the first day (day 0) is used as a control. Western blotting was applied to detect the expression of PSA protein level. […] Cells were harvested on day 1, 2, and 3 for Northern blotting analyses. (G). […] The transfections were performed three times and presented as an average: bar-denotes standard deviation.
# Protein harvested from cells without treatment on the first day (day 0) was used as a control. Fifty micrograms of whole-cell lysate was subjected to Western blotting assay.
# LNCaP cells were cultured in RPMI medium with 8% FBS, and treated with […] of the indicated reagent. Proteins harvested from cells without treatment on day 2 were used as a control. 60 micrograms of whole cell lysate was subjected to Western blotting assay.
# (§2) Total protein lysate from LNCaP cells was prepared as previously described (Yeh, PNAS). After separation of 50 μg protein by SDS-PAGE gel, proteins were transferred by electrophoresis to Immobilon-P membrane (Millipore Corp., Bedford, Mass.) and incubated in PBS with 0.1% Tween-20 and 10% FCS for 2 h. Primary antibodies specific for human AR, PSA, and β-actin were diluted in PBS with 0.1% Tween-20 (PBST) as described in manual and incubated at room temperature for 2 h. Membranes were washed in PBST (three times, 10 min each time) and incubated with AP-conjugated secondary antibody which was diluted as described in manual in PBST and incubated for 2 h in room temperature, washed in PBST (three times, 10 min each time). The proteins were detected by AP western blotting reagents.
# Cells were harvest after 1, 2, and 3 days treatment. Total RNA was extracted using Trizol, according to manufacturer's directions (GIBCO). Total RNA (20 μg) was electrophoresed though formaldehyde-agarose gels and transferred to Hybond-N+ membrane (Amersham Pharmacia Biotech) according the company's protocol (17).
# For Northern blots, the fragments of the human PSA, AR, and β-actin cDNA were labeled with [^32P]-dCTP using the random primed DNA labeling kit from Amersham Pharmacia Biotech. Membranes were prehybridized, hybridized, and washed using Rapid-hyb system from Amersham Pharmacia Biotech, according to the manufacturer's user manual. The mRNA was detected using phosphorimager screen system (Molecular Dynamics).
# PSA6.0-Luc = assay: PSA promoter luciferase reporter (PSA6.0-Luc) in LNCaP cells; assay type: cell-based, human; conditions: 5 nM DHT, 10 μM VES or Suc
# Procedure: as §1
# AR [2] = assay: In vivo AR radioligand competition binding assay in LNCaP cells; design: species or system human
# Procedure: [^3H]R1881-binding without competition was set at 100%. […] (B) AR N-C dimerization.
# LNCaP cells were plated into 60-mm dishes and grown to 60% confluence. […] After 1-h incubation, cells were harvested by lysis buffer (PBS with 1% Triton X-100). Equal protein amounts of cell extract were subjected to binding assays, which were terminated by adding hydroxylapatite. Each sample was filtered by using a sampling manifold (Millipore) and unbound ligand was removed by washing. Filter papers that contained bound ligand were transferred to counting vials containing 5 ml of liquid scintillation fluid and counted with a multipurpose scintillation counter (Beckman).
# AR [3] = assay: AR expression in LNCaP cells (Western and Northern blotting); assay type: cell-based, human; conditions: for AR expression at the protein level: Western blotting, Suc or SM, 10 nM Vit D; for AR expression: Western blotting (FIG. 9)
# Procedure: Cells were harvested at different time points. Twenty-five micrograms of RNA and 50 μg of protein collected from the same culture dish were applied for Northern blotting and Western blotting assays, respectively (45). The amount of actin is shown as a control. […] LNCaP cells without treatment were harvested on day 2 and used as a control. Whole-cell lysates were subjected to Western blotting assay using primary antibodies for AR, VDR, PPAR, or RXR. […] Protein harvested from cells without treatment on the first day (day 0) was used as a control. Fifty micrograms of whole-cell lysate was subjected to Western blotting assay. […] LNCaP cells were cultured in RPMI medium with 8% FBS, and treated with […] of the indicated reagent. Proteins harvested from cells without treatment on day 2 were used as a control. 60 micrograms of whole cell lysate was subjected to Western blotting assay. Total protein lysate from LNCaP cells was prepared as previously described (Yeh, PNAS). […] Membranes were washed in PBST (three times, 10 min each time) and incubated with AP-conjugated secondary antibody which was diluted as described in manual in PBST and incubated for 2 h in room temperature, washed in PBST (three times, 10 min each time). The proteins were detected by AP western blotting reagents. […] Cells were harvest after 1, 2, and 3 days treatment. Total RNA was extracted using Trizol, according to manufacturer's directions (GIBCO). Total RNA (20 μg) was electrophoresed though formaldehyde-agarose gels and transferred to Hybond-N+ membrane (Amersham Pharmacia Biotech) according the company's protocol (17). For Northern blots, the fragments of the human PSA, AR, and β-actin cDNA were labeled with [^32P]-dCTP using the random primed DNA labeling kit from Amersham Pharmacia Biotech. Membranes were prehybridized, hybridized, and washed using Rapid-hyb system from Amersham Pharmacia Biotech, according to the manufacturer's user manual. The mRNA was detected using phosphorimager screen system (Molecular Dynamics).
# PPARα = assay: PPAR expression in LNCaP cells (Western blotting); assay type: cell-based, human
# Procedure: (§3) Cells were harvested at different time points. Twenty-five micrograms of RNA and 50 μg of protein collected from the same culture dish were applied for Northern blotting and Western blotting assays, respectively (45). The amount of actin is shown as a control. […] LNCaP cells without treatment were harvested on day 2 and used as a control. Whole-cell lysates were subjected to Western blotting assay using primary antibodies for AR, VDR, PPAR, or RXR.
# as §2
# LNCaP cells [4] = assay: MTT assay / cell counting, LNCaP cell growth; assay type: cell-based, human; conditions: 10 μM VES, 4 days, phase-contrast
# RXRα = assay: RXR expression in LNCaP cells (Western blotting); assay type: cell-based, human; conditions: 10 μM VES
# Procedure: as §3, §2
# AR [5] = assay: AR translocation / immunostaining; assay type: cell-based
# From the text: Whether VES could influence translocation of AR was examined.
# SP1 = assay: GAL4-SP1 transactivation (pG5-Luc) in COS-1 cells; assay type: cell-based; conditions: 10 μM VES
# [6] = system: primary cultured fibroblasts from normal prostate tissue; assay: MTT assay, primary cultured prostate fibroblast growth; assay type: cell-based; conditions: 10 μM VES, 10% FBS DMEM
# human TAP (hTAP) = human TAP (hTAP) (Homo sapiens, UniProt O76054); conditions: recombinant hTAP; read-out: Kd of binding to recombinant hTAP; cited from earlier work
# [7] = 8% FBS without DHT, HF 5 μM, VES 10 μM, MTT
# [8] = RPMI 8% FBS, 10^−5M reagent, cell counting and MTT (FIGS. 8 and 10)
# human TAP (hTAP), sequence (O76054 whole entry): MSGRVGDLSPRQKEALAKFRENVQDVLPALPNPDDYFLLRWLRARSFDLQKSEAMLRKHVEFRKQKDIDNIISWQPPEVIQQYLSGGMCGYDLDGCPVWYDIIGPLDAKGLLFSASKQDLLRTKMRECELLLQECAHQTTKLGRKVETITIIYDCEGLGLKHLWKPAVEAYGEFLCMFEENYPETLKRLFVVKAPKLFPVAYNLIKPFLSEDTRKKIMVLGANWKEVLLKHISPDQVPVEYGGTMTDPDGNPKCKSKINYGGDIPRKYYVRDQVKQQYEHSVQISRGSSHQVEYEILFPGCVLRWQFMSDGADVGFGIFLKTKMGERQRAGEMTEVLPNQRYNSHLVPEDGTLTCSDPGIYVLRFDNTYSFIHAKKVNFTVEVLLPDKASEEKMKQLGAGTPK
smiles,measurement,setting,value
"C[C@]12CCC(=O)C[C@@H]1CC[C@@H]1[C@@H]2CC[C@]2(C)[C@@H](O)CC[C@@H]12 [DHT, 5-dihydrotestosterone]",LNCaP cell growth,"LNCaP cells [1]; 8% CS-FBS, DHT 5 nM, MTT",can stimulate
same,PSA expression at mRNA and protein levels,PSA; LNCaP,induced
same,DHT induced PSA6.0-Luc activity,PSA6.0-Luc,induced
"CC(C)(O)C(=O)Nc1ccc([N+](=O)[O-])c(C(F)(F)F)c1 [HF, hydroxyflutamide]",DHT-mediated LNCaP cell growth,"LNCaP cells [1]; HF 5 μM, VES 10 μM, MTT",fails to repress
same,LNCaP cell growth,LNCaP cells [1]; [7],"induces LNCaP cell growth at day 2, with the induction gradually diminishing after day 4"
"C[C@]1(O)CC[C@H]2[C@@H]3CCC4=CC(=O)CCC4=C3C=C[C@@]21C [R1881, reference compound]",specific binding of [3H]R1881 competed,"AR [2]; 2.5 nM [3H]R1881, 100-fold excess unlabeled R1881 (250 nM)",95%
"C[Se]CC[C@H](N)C(=O)O [SM, selenomethionine]",AR expression at the protein level,AR [3]; 10 μM VES,no effect
same,LNCaP cell growth,"LNCaP cells [1]; 10 μM SM, after 4 days treatment",growth inhibition
same,PSA expression (protein),"PSA; LNCaP, 8% FBS, 10 μM SM, Western blot",no effect
"O=C(O)CCC(=O)O [Suc, succinic acid]",AR expression at the protein level,AR [3]; 10 μM VES,not
same,DHT induced PSA6.0-Luc activity,PSA6.0-Luc,not
"CC(=O)Oc1c(C)c(C)c2c(c1C)CCC(C)(CCC[C@H](C)CCC[C@H](C)CCCC(C)C)O2 (stereo partly drawn) [VEA, α-Vit E acetate]",AR expression,AR [3]; 8% FBS,do not efficiently inhibit
same,PSA expression,"PSA; LNCaP, 8% FBS",do not efficiently inhibit
"Cc1c(C)c2c(c(C)c1OC(=O)CCC(=O)O)CCC(C)(CCCC(C)CCCC(C)CCCC(C)C)O2 (stereo not drawn) [VES, RRR-α-tocopheryl succinate]",PPARr expression,PPARα; 10 uM VES,little effect
same,PPARα expression,PPARα; 10 μM VES,little effect
same,AR mRNA and protein expression,"AR [3]; 8% FBS, 10 μM VES, Northern and Western blotting",inhibits
same,AR expression,AR [3]; 8% FBS,most effective isoform
same,AR expression at the protein level,AR [3]; 10 μM VES,could suppress
same,morphologic change of LNCaP cells,LNCaP cells [4],most of the cells dying
same,RXRα expression,RXRα,little effect
same,DHT-mediated LNCaP cell growth,"LNCaP cells [1]; HF 5 μM, VES 10 μM, MTT",effectively represses
same,LNCaP cell growth,LNCaP cells [1]; [7],inhibits; also recorded: differentially inhibit
same,LNCaP cell growth,LNCaP cells [1]; [8],can inhibit; also recorded: most effective compound; also recorded: most effective isoform
same,intracellular and secreted levels of PSA,PSA; LNCaP cells in normal serum or androgen-stimulated conditions,decreases
same,PSA expression,"PSA; LNCaP, 8% FBS",most effective isoform
same,PSA expression at mRNA and protein levels,PSA; LNCaP,effectively repressed
same,AR distribution between cytosol and nucleus,AR [5],little influence
same,total AR-staining intensity,AR [5],reduced
same,influence on AR ligand binding,"AR [2]; 10 μM VES pretreatment 24 h, 2.5 nM [3H]R1881",little influence
same,DHT induced PSA6.0-Luc activity,PSA6.0-Luc,repressed
same,GAL4-SP1 transcription activity,SP1,did not significantly inhibit
same,prostate fibroblast cell growth,[6],only a marginal inhibitory effect and not
"C=C1/C(=C\C=C2/CCC[C@]3(C)[C@@H]([C@H](C)CCCC(C)(C)O)CC[C@@H]23)C[C@@H](O)C[C@@H]1O [Vit D, 1α, 25-dihydroxyvitamin D3]",AR expression at the protein level,AR [3]; 10 μM VES,not
same,LNCaP cell growth,LNCaP cells [1]; [8],can inhibit
Cc1c(C)c2c(c(C)c1O)CCC(C)(CCCC(C)CCCC(C)CCCC(C)C)O2 (centres unmarked) [vitamin E],Kd,human TAP (hTAP),460 nM
"Cc1c(C)c2c(c(C)c1O)CC[C@@](C)(CCC[C@H](C)CCC[C@H](C)CCCC(C)C)O2 [α-Vit E, alpha—tocopherol]",AR expression,AR [3]; 8% FBS,can also inhibit
same,LNCaP cell growth,LNCaP cells [1]; [8],can inhibit
same,PSA expression,"PSA; LNCaP, 8% FBS",can also inhibit
"Cc1c(O)cc2c(c1C)O[C@](C)(CCC[C@H](C)CCC[C@H](C)CCCC(C)C)CC2 [γ-Vit E, (+)-γ-tocopherol]",AR expression,AR [3]; 8% FBS,do not efficiently inhibit
same,LNCaP cell growth,LNCaP cells [1]; [8],can inhibit
same,PSA expression,"PSA; LNCaP, 8% FBS",do not efficiently inhibit
